Assay results: patent EP2706123A1, “In vitro method for determining genotoxic and non-genotoxic carcinogenicity of a compound” (Rijksinstituut Voor Volksgezondheid En Milieu, priority 2012, dated 2014)
“And” between values parts separate entries of the source, which are not always exact repeats. Identical values can stand only once.

Tests used:
9030619P08Rik = assay: Expression level of marker gene 9030619P08Rik in liver of mice exposed for 7 days (microarray); details: mouse liver, 7 days exposure; for Average Fold Changes of the expression level of marker gene 9030619P08Rik: average of 3 - 4 independent repeat experiments, negative value = underexpression (negative inverse of Ratio), dose and route per compound in Table 8; for Fold Change of expression of 9030619P08Rik in individual animals: one animal per table line (suffix of Exposure label = animal number), negative value = underexpression
Nup62 = assay: Expression level of marker gene Nup62 in liver of mice exposed for 7 days (microarray); details: mouse liver, 7 days exposure; for Average Fold Changes of the expression level of marker gene Nup62: average of 3 - 4 independent repeat experiments, negative value = underexpression (negative inverse of Ratio), dose and route per compound in Table 8; for Fold Change of expression of Nup62 in individual animals: one animal per table line (suffix of Exposure label = animal number), negative value = underexpression
Anks4b = assay: Expression level of marker gene Anks4b in liver of mice exposed for 7 days (microarray); details: mouse liver, 7 days exposure; for Average Fold Changes of the expression level of marker gene Anks4b: average of 3 - 4 independent repeat experiments, negative value = underexpression (negative inverse of Ratio), dose and route per compound in Table 8; for Fold Change of expression of Anks4b in individual animals: one animal per table line (suffix of Exposure label = animal number), negative value = underexpression
LOC75771 = assay: Expression level of marker gene LOC75771 in liver of mice exposed for 7 days (microarray); details: mouse liver, 7 days exposure; for Average Fold Changes of the expression level of marker gene LOC75771: average of 3 - 4 independent repeat experiments, negative value = underexpression (negative inverse of Ratio), dose and route per compound in Table 8; for Fold Change of expression of LOC75771 in individual animals: one animal per table line (suffix of Exposure label = animal number), negative value = underexpression
Cyp17a1 = assay: Expression level of marker gene Cyp17a1 in liver of mice exposed for 7 days (microarray); details: mouse liver, 7 days exposure; for Average Fold Changes of the expression level of marker gene Cyp17a1: average of 3 - 4 independent repeat experiments, negative value = underexpression (negative inverse of Ratio), dose and route per compound in Table 8; for Fold Change of expression of Cyp17a1 in individual animals: one animal per table line (suffix of Exposure label = animal number), negative value = underexpression
Zbtb16 = assay: Expression level of marker gene Zbtb16 in liver of mice exposed for 7 days (microarray); details: mouse liver, 7 days exposure; for Average Fold Changes of the expression level of marker gene Zbtb16: average of 3 - 4 independent repeat experiments, negative value = underexpression (negative inverse of Ratio), dose and route per compound in Table 8; for Fold Change of expression of Zbtb16 in individual animals: one animal per table line (suffix of Exposure label = animal number), negative value = underexpression

SMILES | Average Fold Changes of the expression level of marker gene 9030619P08Rik (9030619P08Rik) | Fold Change of expression of 9030619P08Rik in individual animals (9030619P08Rik) | Average Fold Changes of the expression level of marker gene Nup62 (Nup62) | Fold Change of expression of Nup62 in individual animals (Nup62) | Average Fold Changes of the expression level of marker gene Anks4b (Anks4b) | Fold Change of expression of Anks4b in individual animals (Anks4b) | Average Fold Changes of the expression level of marker gene LOC75771 (LOC75771) | Fold Change of expression of LOC75771 in individual animals (LOC75771) | Average Fold Changes of the expression level of marker gene Cyp17a1 (Cyp17a1) | Fold Change of expression of Cyp17a1 in individual animals (Cyp17a1) | Average Fold Changes of the expression level of marker gene Zbtb16 (Zbtb16) | Fold Change of expression of Zbtb16 in individual animals (Zbtb16)
CCC1(c2ccccc2)C(=O)NC(=O)NC1=O [NGTXC_PBB, Phenobarbital] | 15,09 | 10,68519 and 17,28227 and 19,31769 and 14,53071 | 1,00 | -1,18737 and -1,21348 and 1,070337 and 1,356669 | 1,47 | 1,857325 and 1,468237 and 1,631778 and 1,048775 | 1,17 | 1,084573 and 1,085274 and 1,34375 and 1,18945 | 2,24 | 1,987088 and 1,966993 and 2,933095 and 2,191937 | -1,59 | -2,34418 and -1,15391 and -1,99396 and -1,17093
CC(=O)Nc1ccc2c(c1)Cc1ccccc1-2 [GTXC_2-AAF, 2-Acetylaminofluorene] | 1,38 | 1,187438 and 1,340597 and 1,335409 and 1,684509 | -1,51 | -1,55724 and -1,69925 and -1,3329 and -1,46527 | 1,87 | 1,655817 and 2,059207 and 2,270806 and 1,587469 | 1,64 | 1,705921 and 2,011494 and 1,050507 and 1,984839 | -1,62 | 1,364397 and -2,15504 and -2,61584 and -1,66057 | -2,94 | -3,61818 and -2,77847 and -3,11926 and -2,3778
CC(C)CCCCCCCOC(=O)c1ccccc1C(=O)OCCCCCCCC(C)C [NC_DIDP, Diisodecyl phthalate] | 1,19 | 1,367458 and -2,48269 and 1,316609 and 2,807593 | -1,03 | 1,082226 and -1,02869 and 1,206993 and -1,44589 | 1,17 | 1,254408 and -1,44863 and 1,229508 and 1,74936 | 1,26 | 1,468884 and 1,270453 and 1,155297 and 1,177232 | -1,22 | -1,67941 and 2,746697 and -2,01664 and -1,81914 | -1,37 | 1,045284 and -1,02838 and -1,15546 and -3,11558
CCOc1ccc(NC(C)=O)cc1 [GTXC_Phe, Phenacetin] | – | 2,591988 and 1,278319 and 1,436254 and 4,17095 | – | -1,46978 and -1,41748 and -1,3917 and -1,33382 | – | 1,592469 and 1,221871 and 1,552723 and 1,512243 | – | 1,462697 and 1,408953 and 1,858825 and 1,503018 | 1,82 | 1,929473 and -1,08575 and 2,976794 and 2,054986 | – | -4,26686 and -1,26966 and -2,10594 and -2,30082
